Laboratory results as given in patent US20050106242A1, “Melt blend dispersions” (priority 2003, published 2005).
In brackets after ≈: the same amount, converted by molar mass.

Legend:
[1] = Water solubility of progesterone in artificial intestinal fluid; type: physicochemical; settings: fassgf or other biorelevant; at 37° C. in artificial intestinal fluid (AIF)
[2] = Particle size of progesterone precipitation in AIF (Horiba LA-910 laser scattering); type: physicochemical; settings: ~4 mg progesterone in 15 ml AIF, shaken at 37° C.; FIG. 1 and FIG. 2
Experimental: Samples as indicated below containing ˜4 mg of progesterone were added to 15 ml AIF and then were shaken in a water bath at 37° C. The particle size of the progesterone precipitation was measured with Horiba LA-910 laser scattering particle size analyzer.

solubility [1]: 0.012 mg/mL (≈ 38.2 µM) | mean particle size [2]: 72.4 μm
SMILES: CC(=O)[C@H]1CC[C@H]2[C@@H]3CCC4=CC(=O)CC[C@]4(C)[C@H]3CC[C@]12C [Progesterone, pregn-4-ene-3,20-dione]
